The values below come from the supplement of paper PMC10949913.

In assay [1] the test system is NCI-H295R. The experiment in a line: ExcessHSA synergy score with TAK-243; higher = less synergy (negative = synergistic). Particulars: combined with: TAK-243 (MLN-7243) matrix, 9-point 1:2 dilution. As for the experimental part: (§1)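 Each drug was tested at 9 points with 1:2 dilution; viability was read by CellTiter-Glo as in the single-agent screen. Synergy is scored as ExcessHSA (sum of excess over highest single agent; negative = synergy) and the Beta interaction parameter (<1 synergy).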

In assay [2] the test system is CU-ACC1. The assay is described as above. Conditions: combined with: TAK-243 (MLN-7243) matrix, 9-point 1:2 dilution. As for the experimental part:
as §1

For `CC[C@@H]1C(=O)N(C)c2cnc(Nc3ccc(C(=O)N[C@H]4CC[C@H](N5CCN(CC6CC6)CC5)CC4)cc3OC)nc2N1C(C)C` [Volasertib], the figures for the “ExcessHSA synergy score with TAK-243” value in assay [1] and in assay [2] were -938 and -422, respectively.
On the same counts, the results for `O=C1NC(=O)C(c2cnc3ccccn23)=C1c1cn2c3c(cc(F)cc13)CN(C(=O)N1CCCCC1)CC2` are 305 and 432.
On the same counts, the results for `CNc1nc(NC2CCN(Cc3ccc4c(cc(C#N)n4C[C@H](C)N4CCN(S(C)(=O)=O)CC4)c3C)CC2)c2cc(CC(F)(F)F)sc2n1` [Ziftomenib (KO-539)] are -888 and -443.
On the same counts, the results for `COc1cc2c(cc1-c1c(C)noc1C)cc(C)c(=O)n2Cc1ccccn1` [ODM-207] are -3.62 and 182.
Regarding `Cc1nc2ccc(F)cc2n1-c1nc(N)c(F)c(Nc2ccc(C(F)(F)F)cc2)n1` [PTC596], the “ExcessHSA synergy score with TAK-243” value in assay [1] was -3.1; in assay [2], -119.
In the same order, the values of `CC(C)NC[C@@H](C(=O)N1CCN(c2ncnc3c2[C@H](C)C[C@H]3O)CC1)c1ccc(Cl)cc1` [Ipatasertib] are -60.3 and 85.6.
In the same order, the values of `C[C@H]1CCN1c1nc(N2C[C@@H]3[C@@H](CC(=O)O)[C@@H]3C2)cc(C(F)(F)F)n1` [Ketohexokinase inhibitor 1] are 49.1 and -31.2.
In the same order, the values of `CCOC(=O)c1ccc(C#Cc2ccc3c(c2)C(C)(C)CCS3)nc1` [Tazarotene] are 136 and 230.
Regarding `Cc1nc(-c2nc(-c3ccc(OC(F)(F)F)cc3)no2)nn1Cc1cccc(N2CCC(S(C)(=O)=O)CC2)c1`, the “ExcessHSA synergy score with TAK-243” value in assay [1] stood at 691; in assay [2] it was 422.
In the same order, the values of `Cc1cc(C(=O)CN2CCCCC2)c(C)n1-c1ccc(Cl)cc1` [IU1-47] are 125 and -58.7.
On to `C=CC(=O)N1CC/C(=C\c2ccc(F)c([N+](=O)[O-])c2)C(=O)/C(=C/c2ccc(F)c([N+](=O)[O-])c2)C1` [VLX-1570], for which the results for the “ExcessHSA synergy score with TAK-243” value in assay [1] and in assay [2] were -147 and 79.8, respectively.
In the same order, the values of `CO/C1=C\C(C)=C\[C@@H](C)[C@@H](O)[C@@H](C)C/C(C)=C/C=C/[C@H](OC)[C@@H]([C@@H](C)[C@@H](O)[C@H](C)[C@@]2(O)C[C@@H](O)[C@H](C)[C@@H](C(C)C)O2)OC1=O` [Bafilomycin A1] are -139 and 14.5.
In the same order, the values of `NC(=O)/C(=C/n1cnc(-c2cc(C(F)(F)F)cc(C(F)(F)F)c2)n1)c1cncnc1` [Eltanexor] are -429 and -817.
In the same order, the values of `O=C(c1ccc(F)c(F)c1Nc1ccc(I)cc1F)N1CC(O)([C@@H]2CCCCN2)C1` [Cobimetinib] are 819 and 450.
On to `Cc1cc2c(C(N)=O)cccc2n1-c1nc2c(c(NCc3ccccc3)n1)COCC2` [CB-5083], for which the “ExcessHSA synergy score with TAK-243” value in assay [1] was 71.1; in assay [2], -143.
In the same order, the values of `NS(=O)(=O)OC[C@@H]1C[C@@H](n2ccc3c(N[C@H]4CCc5ccccc54)ncnc32)C[C@@H]1O` [MLN-4924] are -344 and -111.
On the same counts, the results for `CCOC(=O)[C@@H](N)CCC(=O)N[C@@H](CSCc1ccccc1)C(=O)N[C@@H](C(=O)OCC)c1ccccc1` [Ezatiostat] are -222 and -271.
In the same order, the values of `C[C@@H]1CN(Cc2ccc(F)cc2)[C@@H](C)CN1C(=O)c1cc2c(C(=O)C(=O)N(C)C)cn(C)c2cc1Cl` [Talmapimod] are 657 and 218.
On to `Cc1cc(Oc2ccc3nc(COc4ccc(CC5SC(=O)NC5=O)cc4)n(C)c3c2)cc(C)c1N` (stereo not drawn) [Efatutazone], for which the “ExcessHSA synergy score with TAK-243” value is -69.9 in assay [1] and -278 in assay [2].
In the same order, the values of `Cc1ccc(NC(=O)NCc2ccc3c(c2)CN(C2CCC(=O)NC2=O)C3=O)cc1Cl` (stereo not drawn) [CC-885] are 370 and 356.
As to `COc1ccc(C(=O)N2CCN(c3ccc4c(c3)CCC(=O)N4)CC2)cc1OC` [Vesnarinone], the “ExcessHSA synergy score with TAK-243” value in assay [1] was determined as 706; in assay [2], 628.
In the same order, the values of `Cc1nc2cccc(N)c2c(=O)n1C1CCC(=O)NC1=O` (stereo not drawn) [Avadomide] are 1030 and -213.
On the same counts, the results for `CNCc1ccc(-c2cc(-c3nc(-c4ccc(S(=O)(=O)C(C)C)cc4)cnc3N)on2)cc1` [Berzosertib] are 144 and -219.
In the same order, the values of `C=CCNC1=C2C[C@@H](C)C[C@H](OC)[C@H](O)[C@@H](C)/C=C(\C)[C@H](OC(N)=O)[C@@H](OC)/C=C\C=C(/C)C(=O)NC(=CC1=O)C2=O` [17-AAG] are -251 and 421.
With `CO[C@H]1C(=O)[C@]2(C)[C@@H](OC)C[C@H]3OC[C@@]3(OC(C)=O)[C@H]2[C@H](OC(=O)c2ccccc2)[C@]2(O)C[C@H](OC(=O)[C@H](O)[C@@H](NC(=O)OC(C)(C)C)c3ccccc3)C(C)=C1C2(C)C` [Cabazitaxel], the entries for the “ExcessHSA synergy score with TAK-243” value in assay [1] and in assay [2] were -364 and 396, respectively.
In the same order, the values of `O=c1[nH]c(CSC2CCC(O)CC2)nc2cc(OCC3CC3)cc(F)c12` (stereo not drawn) are 1170 and 650.
On the same counts, the results for `Cc1cccc(CC(=O)N2CCc3c2ccc(-c2cn(C)c4ncnc(N)c24)c3F)n1` are 173 and -151.
On the same counts, the results for `CC(C)n1c(=O)n(C)c2cnc3cc(F)c(-c4ccc(OCCCN5CCCCC5)nc4)cc3c21` [AZD-1390] are 286 and 697.
`O=C(CCCCCCNC(=O)c1cnc(N(c2ccccc2)c2ccccc2Cl)nc1)NO` [Citarinostat (ACY-241)]: the “ExcessHSA synergy score with TAK-243” value was -290 in assay [1] and -47.7 in assay [2].
On the same counts, the results for `Nc1ccn([C@@H]2O[C@H](CO)[C@@H](O)[C@@H]2O)c(=O)n1` [Cytarabine] are 789 and 457.
With `NC(=O)c1c(NC(=O)COCc2cc(-c3cccs3)on2)sc2c1CCCC2`, the “ExcessHSA synergy score with TAK-243” value stood at 122 in assay [1] and 37.9 in assay [2].
In the same order, the values of `O=C(O)C1(C(=O)O)CCC1.[NH2-].[NH2-].[Pt+2]` [Carboplatin] are -21.5 and -188.
`COC(=O)[C@]12CCC(C)(C)C[C@H]1[C@H]1C(=O)C=C3[C@@]4(C)C=C(C#N)C(=O)C(C)(C)[C@@H]4CC[C@@]3(C)[C@]1(C)CC2` [CDDO-Me]: the “ExcessHSA synergy score with TAK-243” value in assay [1] came to 271; in assay [2], 94.3.
With `O=C(NCc1ccc(S(=O)(=O)c2cccc(C(F)(F)F)c2)cc1)c1cnc2[nH]ncc2c1` [GNE-618], the entries for the “ExcessHSA synergy score with TAK-243” value in assay [1] and in assay [2] were -555 and -406, respectively.
In the same order, the values of `COc1ncnc(C2CC2)c1-c1ncc2cnn(Cc3ccc(-c4nc(C(F)(F)F)cn4C(C)C)cc3)c2n1` [KSQ-4279] are -796 and -545.
In the same order, the values of `C=CCn1c(=O)c2cnc(Nc3ccc(N4CCN(C)CC4)cc3)nc2n1-c1cccc(C(C)(C)O)n1` [MK-1775] are 169 and 295.
In the same order, the values of `NCCCC[C@H](NC(=O)[C@@H](NC(=O)[C@H](Cc1c[nH]c2ccccc12)NC(=O)[C@H](CCCCN)NC(=O)[C@H](CCCCN)NC(=O)[C@H](Cc1c[nH]c2ccccc12)NC(=O)[C@H](Cc1c[nH]c2ccccc12)NC(=O)[C@H](CCCCN)NC(=O)[C@@H](N)CCCCN)C(c1ccccc1)c1ccccc1)C(N)=O` [Oncopore] are 391 and 401.
Consider `CO[C@H]1/C=C/C[C@H](C)[C@@H](C)S(=O)(=O)NC(=O)c2ccc3c(c2)N(C[C@@H]2CC[C@H]21)C[C@@]1(CCCc2cc(Cl)ccc21)CO3` [AMG-176], for which the “ExcessHSA synergy score with TAK-243” value in assay [1] is -202; in assay [2], -10.7.
On the same counts, the results for `O=C(O)CNC(=O)c1ncc(-c2cccc(Cl)c2)cc1O` are 289 and -199.
On the same counts, the results for `C#CCC(Cc1cnc2nc(N)nc(N)c2n1)c1ccc(C(=O)N[C@@H](CCC(=O)O)C(=O)O)cc1` (stereo partly drawn) [Pralatrexate] are -57.8 and 137.
On the same counts, the results for `Cc1nc(=O)c2cc(CN(C)c3ccc(C(=O)N[C@@H](CCC(=O)O)C(=O)O)s3)ccc2[nH]1` [Raltitrexed] are -54.1 and -398.
As for `O=C(c1cc(-c2cc3c(cc2C(=O)N2Cc4ccccc4CC2CN2CCOCC2)OCO3)n2c1CCCC2)N(c1ccccc1)c1ccc(O)cc1` (stereo not drawn), the “ExcessHSA synergy score with TAK-243” value in assay [1] is -903; in assay [2] it was -937.
On the same counts, the results for `O=C(NCc1cc(F)cc(F)c1)[C@@]1(O)CCN(c2ccc3[nH]ccc3c2)C1=O` [M8891] are 171 and 34.
As for `O=C(O)c1ccc(CN2CCC(CN[C@@H]3C[C@H]3c3ccccc3)CC2)cc1`, the “ExcessHSA synergy score with TAK-243” value was 23.7 in assay [1] and -27.5 in assay [2].
